Like-named read-outs stand apart in the source and are kept apart here.
Key:
[1] = Pharmacokinetics of trabectedin and docetaxel following coadministration in patients with advanced malignancies; assay type: in vivo, human; details: for CL / Vss / clearance / Vd: mean (SD); for Vd: read-out: Vss
Protocol: FIG. 2 and FIG. 3. Pharmacokinetic parameters of trabectedin and docetaxel following coadministration in patients with advanced malignancies.
A phase I trial combining docetaxel and trabectedin was performed. The objective of this study was to determine the maximum tolerated dose (MTD) of trabectedin in combination with docetaxel (60 mg/m^2 or 75 mg/m^2) administered every 21 days. Additional objectives were to evaluate the safety profile of this combination of drugs and to evaluate the pharmacokinetics of trabectedin and docetaxel when given in combination. The maximum tolerated dose (MTD) relates to the highest dose at which less than one third of the subjects in a dose-level cohort experienced dose-limiting toxicity (DLT).
We designed a dose finding trial with a fixed docetaxel dose of 60 mg/m^2 or 75 mg/m^2 administered intravenously over one hour, followed by one of six trabectedin doses (0.4, 0.6, 0.75, 0.9, 1.1, and 1.3 mg/m^2) administered intravenously over 3 hours, with one hour of rest between the administration of docetaxel and ET-743. This treatment was repeated every 21 days. […] Restricted patients received ≦1 prior chemotherapy regimen whereas unrestricted patients had no limit. In addition, protocol amendment after dose level 2a allowed administration of primary prophylactic G-CSF.

[2] = tested on: human tumour xenografts (melanoma, ovarian and breast carcinoma); details: athymic mice; cited from earlier work
[3] = tested on: patients with sarcoma, breast and ovarian carcinoma; details: cited from earlier work
[4] = trabectedin 400 μg/m^2 (n = 6) coadministered with 60 mg/m^2 of docetaxel
[5] = trabectedin 600 μg/m^2 (n = 3) coadministered with 60 mg/m^2 of docetaxel
[6] = human, in vivo, intravenous, docetaxel 60 mg/m^2 coadministered with trabectedin 400 μg/m^2 (n = 6)
[7] = human, in vivo, intravenous, docetaxel 60 mg/m^2 coadministered with trabectedin 600 μg/m^2 (n = 4)

Row | SMILES | CL [1, 4] | Vss [1, 4] | Terminal t1/2 ([1]; trabectedin 400 μg/m^2 (n = 6) coadministered with 60 mg/m^2 of docetaxel, median (range)) | CL [1, 5] | Vss [1, 5] | Terminal t1/2 ([1]; trabectedin 600 μg/m^2 (n = 3) coadministered with 60 mg/m^2 of docetaxel, median (range)) | Anticancer activity against human tumour xenografts [2] | Responses in patients [3] | Terminal t1/2 ([1]; docetaxel 60 mg/m^2 coadministered with trabectedin 400 μg/m^2 (n = 6), median (range)) | clearance [1, 6] | Vd [1, 6] | clearance [1, 7] | Vd [1, 7] | half-life ([1]; human, in vivo, intravenous, docetaxel 60 mg/m^2 coadministered with trabectedin 600 μg/m^2 (n = 4), median (range), read-out: Terminal t1/2 (converted)) | Impact of concomitant administration of trabectedin on the pharmacokinetics of docetaxel ([1]; patients with advanced malignancies)
1 | COc1cc2c(cc1O)CCN[C@]21CS[C@@H]2c3c(OC(C)=O)c(C)c4c(c3[C@H](COC1=O)N1[C@@H]2[C@H]2c3c(cc(C)c(OC)c3O)C[C@@H]([C@@H]1O)N2C)OCO4 [Trabectedin, Ecteinascidin 743] | 127 (61) L/h | 1179 (1402) L | 11.4 (3.3-100) h | 101 (46) L/h | 2754 (1946) L | 37.5 (11.7-98.8) h | potent anticancer activity | Promising ET-743 responses |  |  |  |  |  |  | 
2 | CC(=O)O[C@@]12CO[C@@H]1C[C@H](O)[C@@]1(C)C(=O)[C@H](O)C3=C(C)[C@@H](OC(=O)[C@H](O)[C@@H](NC(=O)OC(C)(C)C)c4ccccc4)C[C@@](O)([C@@H](OC(=O)c4ccccc4)[C@H]21)C3(C)C [Docetaxel, (2R,3S)-N-carboxy-3-phenylisoserine, N-tert-butyl ester, 13-ester with 5β-20-epoxy-1,2α,4,7β,10β, 13α-hexahydroxytax-11-en-9-one 4-acetate 2-benzoate, trihydrate] |  |  |  |  |  |  |  |  | 19.9 (6.7-23) h | 815 mL/min | 405 L | 797 mL/min | 900 L | 38.2 h | not adversely impacted

From patent US20100009906A1, “Anticancer Treatments” (PHARMA MAR, S.A., priority 2006, published 2010)
